Laboratory results published in PMC10452110, “Indole-3-Acetamido-Polyamines as Antimicrobial Agents and Antibiotic Adjuvants” (Biomolecules, 2023).

Experiments:
human red blood cells = test: Hemolytic assay; type: cell-based; details: mean (n = 2)
Description: Hemolysis assays were conducted using the protocols previously reported.

P. aeruginosa ATCC 27853 = test: Enhancement of doxycycline action against P. aeruginosa; type: cell-based, Pseudomonas aeruginosa; details: doxycycline at 4.5 µM
Description: (§1) Antibiotic enhancer concentrations were determined using previously reported protocols.

[1] = system: Cryptococcus neoformans (ATCC 208821); test: Intrinsic antifungal activity (MIC) against C. neoformans; type: cell-based; details: ATCC208821, C. neoformans ATCC 208821, mean (n = 2), read-out: MIC C. n
Description: (§2) The susceptibility of bacterial strains Staphylococcus aureus (ATCC 25923), Escherichia coli (ATCC 25922) and Pseudomonas aeruginosa (ATCC 27853) to antibiotics and compounds was determined using previously reported protocols. Additional antimicrobial evaluation against MRSA (ATCC 43300), Klebsiella pneumoniae (ATCC 700603), Acinetobacter baumannii (ATCC 19606), Candida albicans (ATCC 90028) and Cryptococcus neoformans (ATCC 208821) was undertaken at the Community for Open Antimicrobial Drug Discovery at The University of Queensland (Australia) according to their standard protocols, as reported previously.

Cytotoxicity assay = type: cell-based; details: human; HEK293 cells; mean (n = 2); read-out: Cytotoxicity: concentration of compound at 50% cytotoxicity (IC50)
Description: Cytotoxicity assays were conducted using the protocols previously reported.

[2] = system: Acinetobacter baumannii (ATCC 19606); test: Intrinsic antimicrobial activity (MIC) against A. baumannii; type: cell-based; details: ATCC19606, A. baumannii ATCC 19606, mean (n = 2), read-out: MIC A. b
Description: as §2

E. coli ATCC 25922 = test: Enhancement of erythromycin action against E. coli; type: cell-based, Escherichia coli; details: erythromycin at 10.9 µM
Description: as §1

[3] = system: Klebsiella pneumoniae (ATCC 700603); test: Intrinsic antimicrobial activity (MIC) against K. pneumoniae; type: cell-based; details: ATCC700603, K. pneumoniae ATCC 700603, mean (n = 2), read-out: MIC K. p
Description: as §2

[4] = system: Pseudomonas aeruginosa (ATCC 27853); test: Intrinsic antimicrobial activity (MIC) against P. aeruginosa; type: cell-based; details: ATCC27853, P. aeruginosa ATCC 27853, mean (n = 3), read-out: MIC P. a
Description: as §2

[5] = system: Staphylococcus aureus (ATCC 25923); test: Intrinsic antimicrobial activity (MIC) against S. aureus; type: cell-based; details: ATCC25923, S. aureus ATCC 25923, mean (n = 3), read-out: MIC S. a
Description: as §2

MRSA (ATCC 43300) = test: Intrinsic antimicrobial activity (MIC) against MRSA; type: cell-based; details: Staphylococcus aureus, MRSA ATCC 43300; mean (n = 2); read-out: MIC MRSA
Description: as §2

[6] = system: Escherichia coli (ATCC 25922); test: Intrinsic antimicrobial activity (MIC) against E. coli; type: cell-based; details: ATCC25922, E. coli ATCC 25922, mean (n = 3), read-out: MIC E. c
Description: as §2

[7] = system: Candida albicans (ATCC 90028); test: Intrinsic antifungal activity (MIC) against C. albicans; type: cell-based; details: ATCC90028, C. albicans ATCC 90028, mean (n = 2), read-out: MIC C. a
Description: as §2

O=C(Cc1c[nH]c2ccccc12)NCCCNCCCCCCCNCCCNC(=O)Cc1c[nH]c2ccccc12.O=C(O)C(F)(F)F.O=C(O)C(F)(F)F [Compound 14c, N^1,N^7-Bis(3-(2-(1H-indol-3-yl)acetamido)propyl)heptane-1,7-diaminium 2,2,2-trifluoroacetate]
Hemolysis: concentration of compound at 10% hemolytic activity (HC10) (human red blood cells): 0.72 µM | Dox/P. a fold change (ratio between intrinsic MIC of the test compound and combination MIC) (P. aeruginosa ATCC 27853): 4 fold | Dox/P. a: concentration required to restore doxycycline activity (combination MIC) (P. aeruginosa ATCC 27853): 63.5 µM | MIC [1]: ≤ 0.32 µM | IC50 (Cytotoxicity assay): > 41 µM | MIC [2]: > 41 µM | Eryth/E. c: concentration required to restore erythromycin activity (combination MIC) (E. coli ATCC 25922): > 254 µM | MIC [3]: > 41 µM | MIC [4]: > 254 µM | MIC [5]: 15.9 µM | MIC (MRSA (ATCC 43300)): ≤ 0.32 µM | MIC [6]: > 254 µM | MIC [7]: > 41 µM

O=C(Cc1c[nH]c2ccccc12)NCCCNCCCCCCCCNCCCNC(=O)Cc1c[nH]c2ccccc12.O=C(O)C(F)(F)F.O=C(O)C(F)(F)F [Compound 14d, N^1,N^8-Bis(3-(2-(1H-indol-3-yl)acetamido)propyl)octane-1,8-diaminium 2,2,2-trifluoroacetate]
Hemolysis: concentration of compound at 10% hemolytic activity (HC10) (human red blood cells): 15.8 µM | Dox/P. a fold change (ratio between intrinsic MIC of the test compound and combination MIC) (P. aeruginosa ATCC 27853): > 1 fold | Dox/P. a: concentration required to restore doxycycline activity (combination MIC) (P. aeruginosa ATCC 27853): 250 µM | MIC [1]: ≤ 0.31 µM | IC50 (Cytotoxicity assay): > 40 µM | MIC [2]: > 40 µM | Eryth/E. c: concentration required to restore erythromycin activity (combination MIC) (E. coli ATCC 25922): 250 µM | MIC [3]: > 40 µM | MIC [4]: > 250 µM | MIC [5]: 31.2 µM | MIC (MRSA (ATCC 43300)): ≤ 0.31 µM | MIC [6]: 62.4 µM | MIC [7]: > 40 µM

COc1cccc2c(CC(=O)NCCCNCCCCCCCCNCCCNC(=O)Cc3c[nH]c4c(OC)cccc34)c[nH]c12.O=C(O)C(F)(F)F.O=C(O)C(F)(F)F [Compound 19d, N^1,N^8-Bis(3-(2-(7-methoxy-1H-indol-3-yl)acetamido)propyl)octane-1,8-diaminium 2,2,2-trifluoroacetate]
Hemolysis: concentration of compound at 10% hemolytic activity (HC10) (human red blood cells): >37 µM | Dox/P. a fold change (ratio between intrinsic MIC of the test compound and combination MIC) (P. aeruginosa ATCC 27853): 1 fold | Dox/P. a: concentration required to restore doxycycline activity (combination MIC) (P. aeruginosa ATCC 27853): > 232 µM | MIC [1]: ≤ 0.29 µM | IC50 (Cytotoxicity assay): > 37 µM | Eryth/E. c: concentration required to restore erythromycin activity (combination MIC) (E. coli ATCC 25922): > 232 µM | MIC [4]: > 232 µM | MIC [5]: 116 µM | MIC (MRSA (ATCC 43300)): 37.2 µM | MIC [6]: > 232 µM | MIC [7]: > 37 µM

COc1cccc2c(CC(=O)NCCCNCCCCCCCCCCCCNCCCNC(=O)Cc3c[nH]c4c(OC)cccc34)c[nH]c12.O=C(O)C(F)(F)F.O=C(O)C(F)(F)F [Compound 19f, N^1,N^12-Bis(3-(2-(7-methoxy-1H-indol-3-yl)acetamido)propyl)dodecane-1,12-diaminium 2,2,2-trifluoroacetate]
Hemolysis: concentration of compound at 10% hemolytic activity (HC10) (human red blood cells): 10.7 µM | Dox/P. a fold change (ratio between intrinsic MIC of the test compound and combination MIC) (P. aeruginosa ATCC 27853): > 1 fold | Dox/P. a: concentration required to restore doxycycline activity (combination MIC) (P. aeruginosa ATCC 27853): 218 µM | MIC [1]: ≤ 0.27 µM | IC50 (Cytotoxicity assay): > 35 µM | Eryth/E. c: concentration required to restore erythromycin activity (combination MIC) (E. coli ATCC 25922): 109 µM | MIC [4]: > 218 µM | MIC [5]: 13.6 µM | MIC (MRSA (ATCC 43300)): ≤ 0.27 µM | MIC [6]: 109 µM | MIC [7]: 34.9 µM

Cc1cccc2c(CC(=O)NCCCNCCCCNCCCNC(=O)Cc3c[nH]c4c(C)cccc34)c[nH]c12.O=C(O)C(F)(F)F.O=C(O)C(F)(F)F [Compound 20a, N^1,N^4-Bis(3-(2-(7-methyl-1H-indol-3-yl)acetamido)propyl)butane-1,4-diaminium 2,2,2-trifluoroacetate]
Hemolysis: concentration of compound at 10% hemolytic activity (HC10) (human red blood cells): 4.11 µM | Dox/P. a fold change (ratio between intrinsic MIC of the test compound and combination MIC) (P. aeruginosa ATCC 27853): 1 fold | Dox/P. a: concentration required to restore doxycycline activity (combination MIC) (P. aeruginosa ATCC 27853): > 259 µM | MIC [1]: ≤ 0.32 µM | IC50 (Cytotoxicity assay): > 41 µM | Eryth/E. c: concentration required to restore erythromycin activity (combination MIC) (E. coli ATCC 25922): 64.7 µM | MIC [4]: > 259 µM | MIC [5]: 32.3 µM | MIC (MRSA (ATCC 43300)): ≤ 0.32 µM | MIC [6]: 259 µM | MIC [7]: 41.4 µM

Cc1cccc2c(CC(=O)NCCCNCCCCCCNCCCNC(=O)Cc3c[nH]c4c(C)cccc34)c[nH]c12.O=C(O)C(F)(F)F.O=C(O)C(F)(F)F [Compound 20b, N^1,N^6-Bis(3-(2-(7-methyl-1H-indol-3-yl)acetamido)propyl)hexane-1,6-diaminium 2,2,2-trifluoroacetate]
Hemolysis: concentration of compound at 10% hemolytic activity (HC10) (human red blood cells): 9.24 µM | Dox/P. a fold change (ratio between intrinsic MIC of the test compound and combination MIC) (P. aeruginosa ATCC 27853): > 1 fold | Dox/P. a: concentration required to restore doxycycline activity (combination MIC) (P. aeruginosa ATCC 27853): 250 µM | MIC [1]: ≤ 0.31 µM | IC50 (Cytotoxicity assay): > 40 µM | Eryth/E. c: concentration required to restore erythromycin activity (combination MIC) (E. coli ATCC 25922): 62.4 µM | MIC [4]: > 250 µM | MIC [5]: 62.4 µM | MIC (MRSA (ATCC 43300)): ≤ 0.31 µM | MIC [6]: 250 µM | MIC [7]: 40 µM

Cc1cccc2c(CC(=O)NCCCNCCCCCCCNCCCNC(=O)Cc3c[nH]c4c(C)cccc34)c[nH]c12.O=C(O)C(F)(F)F.O=C(O)C(F)(F)F [Compound 20c, N^1,N^7-Bis(3-(2-(7-methyl-1H-indol-3-yl)acetamido)propyl)heptane-1,7-diaminium 2,2,2-trifluoroacetate]
Dox/P. a fold change (ratio between intrinsic MIC of the test compound and combination MIC) (P. aeruginosa ATCC 27853): > 2 fold | Dox/P. a: concentration required to restore doxycycline activity (combination MIC) (P. aeruginosa ATCC 27853): 123 µM | MIC [1]: < 0.2 µM | IC50 (Cytotoxicity assay): > 39 µM | MIC [2]: > 39 µM | Eryth/E. c: concentration required to restore erythromycin activity (combination MIC) (E. coli ATCC 25922): 123 µM | MIC [3]: > 39 µM | MIC [4]: > 245 µM | MIC [5]: 3.83 µM | MIC (MRSA (ATCC 43300)): < 0.2 µM | MIC [6]: 245 µM | MIC [7]: > 39 µM

Cc1cccc2c(CC(=O)NCCCNCCCCCCCCCCNCCCNC(=O)Cc3c[nH]c4c(C)cccc34)c[nH]c12.O=C(O)C(F)(F)F.O=C(O)C(F)(F)F [Compound 20e, N^1,N^10-Bis(3-(2-(7-methyl-1H-indol-3-yl)acetamido)propyl)decane-1,10-diaminium 2,2,2-trifluoroacetate]
Hemolysis: concentration of compound at 10% hemolytic activity (HC10) (human red blood cells): 12.7 µM | Dox/P. a fold change (ratio between intrinsic MIC of the test compound and combination MIC) (P. aeruginosa ATCC 27853): 1 fold | Dox/P. a: concentration required to restore doxycycline activity (combination MIC) (P. aeruginosa ATCC 27853): > 233 µM | MIC [1]: ≤ 0.29 µM | IC50 (Cytotoxicity assay): > 37 µM | Eryth/E. c: concentration required to restore erythromycin activity (combination MIC) (E. coli ATCC 25922): > 233 µM | MIC [4]: > 233 µM | MIC [5]: 233 µM | MIC (MRSA (ATCC 43300)): ≤ 0.29 µM | MIC [6]: > 233 µM | MIC [7]: 18.7 µM

Cc1cccc2c(CC(=O)NCCCNCCCCCCCCCCCCNCCCNC(=O)Cc3c[nH]c4c(C)cccc34)c[nH]c12.O=C(O)C(F)(F)F.O=C(O)C(F)(F)F [Compound 20f, N^1,N^12-Bis(3-(2-(7-methyl-1H-indol-3-yl)acetamido)propyl)dodecane-1,12-diaminium 2,2,2-trifluoroacetate]
Hemolysis: concentration of compound at 10% hemolytic activity (HC10) (human red blood cells): ≤0.28 µM | Dox/P. a fold change (ratio between intrinsic MIC of the test compound and combination MIC) (P. aeruginosa ATCC 27853): 1 fold | Dox/P. a: concentration required to restore doxycycline activity (combination MIC) (P. aeruginosa ATCC 27853): > 226 µM | MIC [1]: ≤ 0.28 µM | IC50 (Cytotoxicity assay): > 36 µM | Eryth/E. c: concentration required to restore erythromycin activity (combination MIC) (E. coli ATCC 25922): 28.2 µM | MIC [4]: > 226 µM | MIC [5]: 28.2 µM | MIC (MRSA (ATCC 43300)): ≤ 0.28 µM | MIC [6]: 56.5 µM | MIC [7]: ≤ 0.28 µM
